Measurements as given in patent publication US20230085307A1, “PYRIDAZINONE COMPOUND AND HERBICIDE” (NISSAN CHEMICAL CORPORATION, priority 2019, published 2023).

Experiments:
[1] = system: barnyard grass; assay: Test Example 4: herbicidal effect by soil treatment (Table 19, symbol H); assay type: in vivo, barnyard grass (Echinochloa crus-galli)
Procedure, shortened: (§1)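 Pre-emergence style soil spray: seeds under ~1.5 cm sterilized diluvial soil received a uniform coat of emulsion diluted to the predetermined herbicide amount. Greenhouse 25–30° C; readout at week three on previously defined criteria.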

[2] = system: redroot pigweed; assay: Test Example 4: herbicidal effect by soil treatment (Table 19, symbol N); assay type: in vivo, redroot pigweed (Amaranthus retroflexus)
Procedure, shortened: as §1

[3] = system: late watergrass; assay: Test Example 2: herbicidal activity, application during weed generation under submerged conditions (Table 17, symbol A); assay type: in vivo, late watergrass (Echinochloa oryzicola); conditions: AAH 320 g/ha; application during weed generation, submerged conditions
Procedure, shortened: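 Herbicide emulsion, diluted with water to the chosen amount, is applied onto 4 cm floodwater over alluvial soil where the weeds were co-sown and raised at 25–30° C. Application timing: 1–2 leaves. Assessment: three weeks afterwards.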

[4] = system: blackgrass; assay: Test Example 4: herbicidal effect by soil treatment (Table 19, symbol J); assay type: in vivo, blackgrass (Alopecurus myosuroides)
Procedure, shortened: as §1

[5] = system: blackgrass; assay: Test Example 5: herbicidal effect by foliage application, plastic box (Table 20, symbol J); assay type: in vivo, blackgrass (Alopecurus myosuroides); conditions: foliage application
Procedure, shortened: (§2)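 Plants were sown into sterilized diluvial soil under about 1.5 cm cover and kept in a greenhouse at 25° C. to 30° C. Fourteen days on, foliage received an even spray of the diluted emulsion. Herbicidal or crop effect was judged three weeks afterwards.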

[6] = system: barnyard grass; assay: Test Example 3: herbicidal effect by foliage application, Wagner pot (Table 18, symbol H); assay type: in vivo, barnyard grass (Echinochloa crus-galli); conditions: for herbicidal effect on H (barnyard grass), rating 0-5: 320 g/ha
Procedure, shortened: (§3)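 Plants were sown in alluvial soil held under 0.1–0.5 cm standing water and grown 14 days in a greenhouse at 25–30 °C. An emulsifiable formulation, water-diluted to the set dose, was then sprayed onto the foliage, and effects were scored three weeks later using previously defined criteria.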

[7] = system: lambsquarters; assay: Test Example 4: herbicidal effect by soil treatment (Table 19, symbol O); assay type: in vivo, lambsquarters (Chenopodium album)
Procedure, shortened: as §1

[8] = system: southern crabgrass; assay: Test Example 4: herbicidal effect by soil treatment (Table 19, symbol F); assay type: in vivo, southern crabgrass (Digitaria ciliaris)
Procedure, shortened: as §1

[9] = system: windgrass; assay: Test Example 5: herbicidal effect by foliage application, plastic box (Table 20, symbol L); assay type: in vivo, windgrass (Apera spica-venti); conditions: foliage application
Procedure, shortened: as §2

[10] = system: wild oat; assay: Test Example 5: herbicidal effect by foliage application, plastic box (Table 20, symbol I); assay type: in vivo, wild oat (Avena fatua); conditions: foliage application
Procedure, shortened: as §2

[11] = system: Chinese sprangletop; assay: Test Example 3: herbicidal effect by foliage application, Wagner pot (Table 18, symbol D); assay type: in vivo, chinese sprangletop (Leptochloa chinensis); conditions: for herbicidal effect on D (Chinese sprangletop), rating 0-5: 320 g/ha
Procedure, shortened: as §3

[12] = system: Japanese bulrush; assay: Test Example 1: herbicidal activity, application before weed generation under submerged conditions (Table 16, symbol B); assay type: in vivo, Japanese bulrush (Schoenoplectus juncoides); conditions: 320 g/ha applied herbicide
Procedure, shortened: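 Submerged Wagner pots (alluvial soil, 4 cm water) sown with weed seeds and planted with 2.5-leaf rice seedlings; emulsifiable concentrate diluted in water applied to water surface on sowing day. Held in greenhouse at 25-30 °C; injury scored 0-5 by herbicidal rate after three weeks.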

[13] = system: lambsquarters; assay: Test Example 5: herbicidal effect by foliage application, plastic box (Table 20, symbol O); assay type: in vivo, lambsquarters (Chenopodium album); conditions: foliage application
Procedure, shortened: as §2

[14] = system: velvetleaf; assay: Test Example 4: herbicidal effect by soil treatment (Table 19, symbol M); assay type: in vivo, velvetleaf (Abutilon theophrasti)
Procedure, shortened: as §1

[15] = system: Italian ryegrass; assay: Test Example 5: herbicidal effect by foliage application, plastic box (Table 20, symbol K); assay type: in vivo, Italian ryegrass (Lolium multiflorum); conditions: foliage application
Procedure, shortened: as §2

[16] = system: green foxtail; assay: Test Example 4: herbicidal effect by soil treatment (Table 19, symbol G); assay type: in vivo, green foxtail (Setaria viridis)
Procedure, shortened: as §1

[17] = system: chickweed; assay: Test Example 4: herbicidal effect by soil treatment (Table 19, symbol P); assay type: in vivo, common chickweed (Stellaria media); conditions: 320 g/ha
Procedure, shortened: as §1

[18] = amount of applied herbicide 320 g/ha
[19] = 320 g/ha, three weeks after application
[20] = AAH 320 g/ha, three weeks after application
[21] = 320 g/ha, 3 weeks after application
[22] = 320 g/ha, evaluated three weeks after application

Row | Structure (SMILES) | herbicidal effect rating, H: barnyard grass [1, 18] | herbicidal effect rating, N: redroot pigweed [2, 18] | herbicidal effect rating, A: late watergrass [3] | herbicidal effect rating, J: blackgrass [4, 18] | herbicidal effect on H (barnyard grass), rating 0-5 [6] | herbicidal effect rating, O: lambsquarters [7, 18] | herbicidal effect rating, F: southern crabgrass [8, 18] | herbicidal effect on D (Chinese sprangletop), rating 0-5 [11] | Herbicidal effect on B: Japanese bulrush (grade 0-5) [12] | herbicidal effect rating, M: velvetleaf [14, 18] | herbicidal effect rating, H: barnyard grass ([1]; 320 g/ha) | herbicidal effect rating, N: redroot pigweed ([2]; 320 g/ha) | herbicidal effect rating, J: blackgrass ([4]; 320 g/ha) | herbicidal effect rating, G: green foxtail ([16]; 320 g/ha) | herbicidal effect rating, F: southern crabgrass ([8]; 320 g/ha) | herbicidal effect rating, P: chickweed [17] | herbicidal effect rating, M: velvetleaf ([14]; 320 g/ha) | further results
1 | CCCCOc1ccc(-c2sc3ccccc3c2-c2c(OC(=O)CCC)c(C)nn(C)c2=O)cc1 [1-025] | 0 (Herbicidal rate of 5% or less (almost no effect)) | 5 (Herbicidal rate of 90% or more (almost completely withered)) | 0 (Herbicidal rate of 5% or less (almost no effect)) | 0 (Herbicidal rate of 5% or less (almost no effect)) | 5 (Herbicidal rate of 90% or more (almost completely withered)) | 2 (Herbicidal rate of 20% or more and less than 40%) | 0 (Herbicidal rate of 5% or less (almost no effect)) | 4 (Herbicidal rate of 70% or more and less than 90%) | 5 (Herbicidal rate of 90% or more (almost completely withered)) | 0 (Herbicidal rate of 5% or less (almost no effect)) | – | – | – | – | – | – | – | herbicidal effect grade, J: blackgrass [5, 19]: 0 (Herbicidal rate of 5% or less (almost no effect)); herbicidal effect grade, L: windgrass [9, 19]: 0 (Herbicidal rate of 5% or less (almost no effect)); herbicidal effect grade, I: wild oat [10, 19]: 0 (Herbicidal rate of 5% or less (almost no effect)); herbicidal effect grade, O: lambsquarters [13, 19]: 4 (Herbicidal rate of 70% or more and less than 90%); herbicidal effect grade, K: Italian ryegrass [15, 19]: 1 (Herbicidal rate of 5% or more and less than 20%)
2 | Cc1nn(C)c(=O)c(-c2c(-c3ccc4c(c3)OCCO4)sc3ccccc23)c1O [1-089] | 5 (Herbicidal rate of 90% or more (almost completely withered)) | 4 (Herbicidal rate of 70% or more and less than 90%) | 5 (Herbicidal rate of 90% or more (almost completely withered)) | 0 (Herbicidal rate of 5% or less (almost no effect)) | 5 (Herbicidal rate of 90% or more (almost completely withered)) | 5 (Herbicidal rate of 90% or more (almost completely withered)) | 3 (Herbicidal rate of 40% or more and less than 70%) | 0 (Herbicidal rate of 5% or less (almost no effect)) | 4 (Herbicidal rate of 70% or more and less than 90%) | 2 (Herbicidal rate of 20% or more and less than 40%) | – | – | – | – | – | – | – | herbicidal effect rating, G: green foxtail [16, 18]: 5 (Herbicidal rate of 90% or more (almost completely withered)); J: blackgrass, herbicidal effect [5, 20]: 0 (Herbicidal rate of 5% or less (almost no effect)); L: windgrass, herbicidal effect [9, 20]: 4 (Herbicidal rate of 70% or more and less than 90%); I: wild oat, herbicidal effect [10, 20]: 0 (Herbicidal rate of 5% or less (almost no effect)); O: lambsquarters, herbicidal effect [13, 20]: 3 (Herbicidal rate of 40% or more and less than 70%); K: Italian ryegrass, herbicidal effect [15, 20]: 5 (Herbicidal rate of 90% or more (almost completely withered))
3 | Cc1nn(C)c(=O)c(-c2c(-c3ccccc3OC(F)(F)F)sc3ccc(F)cc23)c1O [2-043] | – | – | 0 (Herbicidal rate of 5% or less (almost no effect)) | – | 5 (Herbicidal rate of 90% or more (almost completely withered)) | – | – | 3 (Herbicidal rate of 40% or more and less than 70%) | 2 (Herbicidal rate of 20% or more and less than 40%) | – | 4 (Herbicidal rate of 70% or more and less than 90%) | 5 (Herbicidal rate of 90% or more (almost completely withered)) | 0 (Herbicidal rate of 5% or less (almost no effect)) | 5 (Herbicidal rate of 90% or more (almost completely withered)) | 5 (Herbicidal rate of 90% or more (almost completely withered)) | 1 (Herbicidal rate of 5% or more and less than 20%) | 3 (Herbicidal rate of 40% or more and less than 70%) | herbicidal effect rating, O: lambsquarters ([7]; 320 g/ha): 5 (Herbicidal rate of 90% or more (almost completely withered)); effect on windgrass (L) [9, 21]: 3 (Herbicidal rate of 40% or more and less than 70%); effect on wild oat (I) [10, 21]: 2 (Herbicidal rate of 20% or more and less than 40%); effect on lambsquarters (O) [13, 21]: 4 (Herbicidal rate of 70% or more and less than 90%); effect on Italian ryegrass (K) [15, 21]: 0 (Herbicidal rate of 5% or less (almost no effect))
4 | C#CCOc1ccc(-c2sc3ccc(F)cc3c2-c2c(OCOCCOC)c(C)nn(C)c2=O)cc1 [2-055] | – | – | 0 (Herbicidal rate of 5% or less (almost no effect)) | – | 5 (Herbicidal rate of 90% or more (almost completely withered)) | – | – | 5 (Herbicidal rate of 90% or more (almost completely withered)) | 3 (Herbicidal rate of 40% or more and less than 70%) | – | 3 (Herbicidal rate of 40% or more and less than 70%) | 4 (Herbicidal rate of 70% or more and less than 90%) | 0 (Herbicidal rate of 5% or less (almost no effect)) | 4 (Herbicidal rate of 70% or more and less than 90%) | 1 (Herbicidal rate of 5% or more and less than 20%) | 3 (Herbicidal rate of 40% or more and less than 70%) | 3 (Herbicidal rate of 40% or more and less than 70%) | herbicidal effect on J: blackgrass [5, 22]: 3 (Herbicidal rate of 40% or more and less than 70%); herbicidal effect on L: windgrass [9, 22]: 0 (Herbicidal rate of 5% or less (almost no effect)); herbicidal effect on I: wild oat [10, 22]: 1 (Herbicidal rate of 5% or more and less than 20%); herbicidal effect on O: lambsquarters [13, 22]: 5 (Herbicidal rate of 90% or more (almost completely withered)); herbicidal effect on K: Italian ryegrass [15, 22]: 3 (Herbicidal rate of 40% or more and less than 70%)
5 | Cc1nn(C)c(=O)c(-c2c(-c3cccc(OC(C)C)c3)sc3ccc(F)cc23)c1O [2-215] | – | – | 2 (Herbicidal rate of 20% or more and less than 40%) | – | – | – | – | – | 0 (Herbicidal rate of 5% or less (almost no effect)) | – | – | – | – | – | – | – | – | H: barnyard grass, herbicidal effect rating [1, 18]: 5 (Herbicidal rate of 90% or more (almost completely withered)); N: redroot pigweed, herbicidal effect rating [2, 18]: 5 (Herbicidal rate of 90% or more (almost completely withered)); J: blackgrass, herbicidal effect rating [4, 18]: 1 (Herbicidal rate of 5% or more and less than 20%); G: green foxtail, herbicidal effect rating [16, 18]: 5 (Herbicidal rate of 90% or more (almost completely withered)); herbicidal effect on J: blackgrass (criteria 0-5) [5, 22]: 3 (Herbicidal rate of 40% or more and less than 70%); herbicidal effect on H: barnyard grass [6, 18]: 5 (Herbicidal rate of 90% or more (almost completely withered)); O: lambsquarters, herbicidal effect rating [7, 18]: 3 (Herbicidal rate of 40% or more and less than 70%); F: southern crabgrass, herbicidal effect rating [8, 18]: 5 (Herbicidal rate of 90% or more (almost completely withered)); herbicidal effect on L: windgrass (criteria 0-5) [9, 22]: 3 (Herbicidal rate of 40% or more and less than 70%); herbicidal effect on I: wild oat (criteria 0-5) [10, 22]: 0 (Herbicidal rate of 5% or less (almost no effect)); herbicidal effect on D: Chinese sprangletop [11, 18]: 5 (Herbicidal rate of 90% or more (almost completely withered)); herbicidal effect on O: lambsquarters (criteria 0-5) [13, 22]: 3 (Herbicidal rate of 40% or more and less than 70%); M: velvetleaf, herbicidal effect rating [14, 18]: 2 (Herbicidal rate of 20% or more and less than 40%); herbicidal effect on K: Italian ryegrass (criteria 0-5) [15, 22]: 5 (Herbicidal rate of 90% or more (almost completely withered))
